Data from patent US9125898B2, “Acetam derivatives for pain relief” (NEUROTUNE AG, priority 2008, dated 2015).

Tested on: chronic constriction injury induced hyperalgesia in the rat
Test: Chronic constriction injury induced hyperalgesia in the rat (paw-pressure test)
Type: in vivo
Settings: for Paw pressure, pre-test before all treatments: baseline, drug 100 mg/kg p.o.; for Paw pressure, 5 day 30 min / Paw pressure, 10 day 30 min / Paw pressure, 14 day 30 min / Paw pressure, 14 day 4 h / Paw pressure, 14 day 8 h / Paw pressure, 15 day 24 h / Paw pressure, 18 day 3 days: 100 mg/kg p.o. once a day for 14 days
Experimental: In the repeated administration protocol, NT-13317 was orally administered at 100 mg/kg in 1% CMC once a day for 14 days starting from the day of sciatic nerve ligation.
Peripheral rat mononeuropathy (Chronic constriction injury): Neuropathy was induced according to the procedure described by Bennett and Xie (Bennett G J, Xie Y K. A peripheral mononeuropathy in rat that produces disorders of pain sensation like those seen in man. Pain 1988; 33: 87-107).
Briefly, rats were anaesthetized with chloral hydrate 400 mg/kg intraperitoneally (i.p.); under aseptic conditions, the right common sciatic nerve was exposed at the level of the middle thigh by blunt dissection. Proximal to the trifurcation, the nerve was carefully freed from the surrounding connective tissue and four chromic cat gut ligatures (4-0, Ethicon, Norderstedt, Germany) were tied loosely around it with about 1 mm spacing. After haemostasis was confirmed, the incision was closed in layers. Then animals were allowed to recover from anaesthesia and surgery and were kept one per cage with free access to water and standard laboratory chow.
Statistical analysis: All experimental results are given as the mean±S.E.M. An analysis of variance, ANOVA, followed by Fisher's protected least significant difference procedure for post hoc comparison, were used to verify significance between two means of behavioural results. Data were analyzed with the StatView software for the Macintosh (1992). P values≦0.05 were considered significant.
Data of mechanical threshold (PWT) were converted to a percentage of the maximal possible effect (% MPE), according to Veneroni, O. et al. as follows: %MPE=(left dose PWT−left pre-dose control PWT)/(left naïve PWT−left pre-dose PWT)*100
The obtained % MPE were employed for ED50 calculation (obtained by Grafit v. 5.0), defined as the dose producing 50% reversal of mechanical allodynia.

NCC1(CC(=O)O)CCCCC1 [GABAPENTIN, Gabapentin, reference compound]
Paw pressure, pre-test before all treatments (CCI group): 62.9 ± 3.3 g | Paw pressure, 5 day 30 min (CCI): 52.4 ± 4.6 g | Paw pressure, 10 day 30 min (CCI): 52.7 ± 5.6 g | Paw pressure, 14 day 30 min (CCI): 56.7 ± 6.2 g | Paw pressure, 14 day 4 h (CCI): 57.1 ± 5.5 g | Paw pressure, 14 day 8 h (CCI): 62.3 ± 6.5 g | Paw pressure, 15 day 24 h (CCI): 59.6 ± 5.7 g | Paw pressure, 18 day 3 days (CCI): 58.2 ± 5.5 g | Paw pressure, pre-test before all treatments (SHAM group): 61.8 ± 2.9 g | Paw pressure, 5 day 30 min (SHAM): 63.2 ± 4.1 g | Paw pressure, 10 day 30 min (SHAM): 69.2 ± 5.1 g | Paw pressure, 14 day 30 min (SHAM): 71.2 ± 6.3 g | Paw pressure, 14 day 4 h (SHAM): 69.2 ± 5.6 g | Paw pressure, 14 day 8 h (SHAM): 70.4 ± 5.9 g | Paw pressure, 15 day 24 h (SHAM): 68.5 ± 5.8 g | Paw pressure, 18 day 3 days (SHAM): 66.4 ± 4.8 g | Effect on paw pressure test after the last administration (in words) (p.o. 100 mg/kg once a day for 14 days from the day of sciatic nerve ligation): still active after 72 hr
